Reference: ChEMBL document CHEMBL5715954, “Silencing c-Myc translation as a therapeutic strategy through targeting PI3Kδ and CK1ε in hematological malignancies” (Blood, 2017)

Assays:
Parameters in all cases: scale not given: the % may be the effect or the level left
[1] = target: T1, SNF-related serine/threonine-protein kinase (Homo sapiens) (UniProt Q9NRH2); test: Inhibition of human SNRK assessed as enzyme activity at 1 uM using myelin basic protein as substrate preincubated for 20 mins followed by [gamma-33P]-ATP addition and measured after 120 mins by radiometric Hot-SpotSM Kinase assay relative to control
T1 sequence (whole entry): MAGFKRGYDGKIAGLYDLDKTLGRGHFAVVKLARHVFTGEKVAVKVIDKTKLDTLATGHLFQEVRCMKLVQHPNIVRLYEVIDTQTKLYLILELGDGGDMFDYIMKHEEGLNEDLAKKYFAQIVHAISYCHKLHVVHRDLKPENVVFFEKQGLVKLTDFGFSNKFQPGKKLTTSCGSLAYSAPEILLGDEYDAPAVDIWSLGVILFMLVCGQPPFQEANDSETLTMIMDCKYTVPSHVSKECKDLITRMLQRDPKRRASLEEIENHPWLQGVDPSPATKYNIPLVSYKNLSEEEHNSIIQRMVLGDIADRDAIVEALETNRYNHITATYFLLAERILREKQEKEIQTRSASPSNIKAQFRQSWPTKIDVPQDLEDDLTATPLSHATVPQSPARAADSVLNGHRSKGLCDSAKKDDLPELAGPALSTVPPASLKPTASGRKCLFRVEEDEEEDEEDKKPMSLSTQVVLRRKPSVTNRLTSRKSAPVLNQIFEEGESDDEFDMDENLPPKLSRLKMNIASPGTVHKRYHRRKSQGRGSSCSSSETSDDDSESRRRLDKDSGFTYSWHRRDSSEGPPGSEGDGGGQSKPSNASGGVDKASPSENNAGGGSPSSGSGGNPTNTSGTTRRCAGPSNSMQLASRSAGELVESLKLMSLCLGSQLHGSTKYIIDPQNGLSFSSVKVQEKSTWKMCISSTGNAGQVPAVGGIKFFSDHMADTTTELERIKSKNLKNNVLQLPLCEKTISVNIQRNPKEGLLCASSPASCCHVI

[2] = target: STE20/SPS1-related proline-alanine-rich protein kinase (Homo sapiens) (UniProt Q9UEW8); test: Inhibition of human STK39 assessed as enzyme activity at 1 uM using myelin basic protein as substrate preincubated for 20 mins followed by [gamma-33P]-ATP addition and measured after 120 mins by radiometric Hot-SpotSM Kinase assay relative to control
[3] = target: T2, Mitogen-activated protein kinase kinase kinase 3 (Homo sapiens) (UniProt Q99759); test: Inhibition of human MEKK3 assessed as enzyme activity at 1 uM using myelin basic protein as substrate preincubated for 20 mins followed by [gamma-33P]-ATP addition and measured after 120 mins by radiometric Hot-SpotSM Kinase assay relative to control
T2 sequence (whole entry): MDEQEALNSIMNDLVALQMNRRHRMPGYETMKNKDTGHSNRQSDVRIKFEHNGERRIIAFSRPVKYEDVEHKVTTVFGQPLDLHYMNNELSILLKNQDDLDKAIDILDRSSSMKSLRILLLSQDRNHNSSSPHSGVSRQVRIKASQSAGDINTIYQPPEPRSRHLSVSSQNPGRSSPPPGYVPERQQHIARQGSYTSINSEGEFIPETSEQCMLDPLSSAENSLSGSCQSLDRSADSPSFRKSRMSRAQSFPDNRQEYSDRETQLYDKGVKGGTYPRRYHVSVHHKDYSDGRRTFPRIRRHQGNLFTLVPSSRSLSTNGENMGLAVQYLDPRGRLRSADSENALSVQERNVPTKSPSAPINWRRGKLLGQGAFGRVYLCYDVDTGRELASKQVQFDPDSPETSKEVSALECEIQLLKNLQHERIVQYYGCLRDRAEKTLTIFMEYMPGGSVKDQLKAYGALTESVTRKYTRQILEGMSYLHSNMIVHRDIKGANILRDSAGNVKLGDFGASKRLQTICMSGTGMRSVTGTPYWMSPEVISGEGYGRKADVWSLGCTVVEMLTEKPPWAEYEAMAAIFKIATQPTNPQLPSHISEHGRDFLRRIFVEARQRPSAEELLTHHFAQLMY

[4] = target: Protein kinase C theta type (Homo sapiens) (UniProt Q04759); test: Inhibition of human PKCtheta assessed as enzyme activity at 1 uM using ERMRPRKRQGSVRRRV as substrate preincubated for 20 mins followed by [gamma-33P]-ATP addition and measured after 120 mins by radiometric Hot-SpotSM Kinase assay relative to control
[5] = organism: Homo sapiens; test: Inhibition of human CDK2/cyclin A assessed as enzyme activity at 1 uM using RB Protein as substrate preincubated for 20 mins followed by [gamma-33P]-ATP addition and measured after 120 mins by radiometric Hot-SpotSM Kinase assay relative to control
[6] = target: T3, G protein-coupled receptor kinase 3 (Homo sapiens) (UniProt P35626); test: Inhibition of human GRK3 assessed as enzyme activity at 1 uM using casein as substrate preincubated for 20 mins followed by [gamma-33P]-ATP addition and measured after 120 mins by radiometric Hot-SpotSM Kinase assay relative to control
T3 sequence (whole entry): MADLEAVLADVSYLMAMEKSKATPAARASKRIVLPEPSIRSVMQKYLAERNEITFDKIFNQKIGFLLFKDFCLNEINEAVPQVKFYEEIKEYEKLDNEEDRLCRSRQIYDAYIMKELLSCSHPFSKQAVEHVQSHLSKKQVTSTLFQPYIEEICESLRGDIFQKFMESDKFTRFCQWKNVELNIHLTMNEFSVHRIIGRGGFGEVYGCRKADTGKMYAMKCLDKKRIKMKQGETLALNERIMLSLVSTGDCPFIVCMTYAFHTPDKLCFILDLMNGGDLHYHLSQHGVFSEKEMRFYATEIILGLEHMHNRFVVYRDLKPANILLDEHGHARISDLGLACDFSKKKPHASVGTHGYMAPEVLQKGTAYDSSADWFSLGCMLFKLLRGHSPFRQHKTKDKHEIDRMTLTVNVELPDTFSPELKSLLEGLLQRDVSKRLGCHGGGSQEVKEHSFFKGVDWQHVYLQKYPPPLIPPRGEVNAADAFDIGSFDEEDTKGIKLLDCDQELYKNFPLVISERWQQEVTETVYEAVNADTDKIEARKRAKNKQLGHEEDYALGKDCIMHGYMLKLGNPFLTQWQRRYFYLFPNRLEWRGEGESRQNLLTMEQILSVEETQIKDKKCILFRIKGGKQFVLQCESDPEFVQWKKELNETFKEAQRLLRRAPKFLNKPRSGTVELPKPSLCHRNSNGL

Sequence of Protein kinase C theta type (Homo sapiens) (Q04759 whole entry, looked up): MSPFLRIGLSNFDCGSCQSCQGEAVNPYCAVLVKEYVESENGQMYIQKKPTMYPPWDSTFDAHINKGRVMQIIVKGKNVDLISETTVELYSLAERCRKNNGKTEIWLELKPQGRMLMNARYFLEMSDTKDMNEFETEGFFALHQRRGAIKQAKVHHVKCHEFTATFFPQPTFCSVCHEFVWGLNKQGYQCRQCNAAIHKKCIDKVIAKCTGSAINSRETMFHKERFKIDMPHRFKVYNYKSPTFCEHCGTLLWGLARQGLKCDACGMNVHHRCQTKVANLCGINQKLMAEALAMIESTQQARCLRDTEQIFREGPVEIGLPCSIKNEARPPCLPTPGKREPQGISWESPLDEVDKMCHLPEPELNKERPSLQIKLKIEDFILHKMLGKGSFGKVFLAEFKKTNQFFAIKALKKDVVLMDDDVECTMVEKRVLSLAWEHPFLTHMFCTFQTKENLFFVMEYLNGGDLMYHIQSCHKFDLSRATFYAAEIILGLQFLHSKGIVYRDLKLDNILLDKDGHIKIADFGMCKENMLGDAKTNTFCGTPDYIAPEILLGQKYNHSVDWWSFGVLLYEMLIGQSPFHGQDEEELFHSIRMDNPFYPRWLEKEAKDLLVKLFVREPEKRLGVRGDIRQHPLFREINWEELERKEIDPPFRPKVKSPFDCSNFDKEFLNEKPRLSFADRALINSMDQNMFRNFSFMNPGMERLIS

Row | SMILES | Activity [1] | Activity [2] | Activity [3] | Activity [4] | Activity [5] | Activity [6]
1 | C[C@H](Nc1ncnc2nc[nH]c12)c1cc2cccc(Cl)c2c(=O)n1-c1ccccc1 | 96.6% | 78.1% | 91.8% | 112% | 101% | 91.5%
2 | CC[C@H](Nc1ncnc2[nH]cnc12)c1nc2cccc(F)c2c(=O)n1-c1ccccc1 | 102% | 87.1% | 102% | 109% | 100% | 95.3%
3 | CC(C)Oc1ccc(-c2nn([C@@H](C)c3oc4ccc(F)cc4c(=O)c3-c3cccc(F)c3)c3ncnc(N)c23)cc1F [UMBRALISIB] | 102% | 85.4% | 102% | 106% | 104% | 99.6%
